PMC10999558, “Analyzing resistome in soil and Human gut: a study on the characterization and risk evaluation of antimicrobial peptide resistance” (Frontiers in Microbiology, 2024)

Columns and labels:
Format in all cases: cell-based, Escherichia coli
Conditions in all cases: MHB, 37°C, 24 h, triplicate
E. coli JM109 = assay: MIC, broth microdilution, retransformed E. coli JM109
Procedure: (§1) Escherichia coli DH5α, E. coli BL21(DE3), and E. coli JM109 were utilized in this study.
(§2) The MICs were determined using the broth microdilution method in 96-well microtiter plates ([Wiegand et al., 2008]). In brief, a 1:100 dilution of the mid-exponential phase bacterial culture (OD600 = 0.5), consisting of 5 μL (1 × 10^5 CFU/mL), was introduced into polypropylene 96-well plates. These plates contained a two-fold dilution series of AMP in a total volume of 100 μL MHB per well. The incubation of the plates occurred at 37°C in a humidity chamber. The MIC was identified as the lowest concentration that hindered visible bacterial growth after 24 h of incubation. Each experiment was conducted in triplicate.
(§3) Before washing down the colonies, we randomly selected two clones from each plate containing distinct AMP. Colony PCRs were conducted using M13 primer pairs to validate the presence of inserts and determine their sizes. The selected colonies were then subjected to sequencing. The specific details are provided in Supplementary Table S2. Following that, plasmids were isolated using the Plasmid Midiprep Kit (Zomanbio, ZP103) following the manufacturer’s guidelines. After the plasmids were successfully reintroduced into E. coli JM109 and E. coli BL 21(DE3), the MICs of the transformed strains against the AMP used for selection were tested. This testing process was carried out in triplicate.
(§4) Following validation, the colonies displaying resistance underwent additional testing via MIC assessments for the remaining four AMPs that were not employed during the selection process. This experimental procedure was carried out in triplicate.

E. coli DH5α = assay: MIC, broth microdilution, E. coli DH5α carrying pUC118 or resistance-conferring plasmids
Procedure: as §1, §2, §4

E. coli BL21(DE3) = assay: MIC, broth microdilution, retransformed E. coli BL21(DE3)
Procedure: as §1, §2, §3, §4

Polymyxin B [PB]
MIC (E. coli JM109; colony pUC118-FCST1-JM109 (feces insert 1 selected against colistin)): 0.25 µg/mL
MIC (E. coli JM109; colony pUC118-FCST2-JM109 (feces insert 2 selected against colistin)): 1 µg/mL
MIC (E. coli JM109; colony pUC118-FGQ1-JM109 (feces insert 1 selected against melittin)): 0.5 µg/mL
MIC (E. coli JM109; colony pUC118-FGQ2-JM109 (feces insert 2 selected against melittin)): 0.5 µg/mL
MIC (E. coli JM109; colony pUC118-FIB1-JM109 (feces insert 1 selected against iseganan)): 0.25 µg/mL
MIC (E. coli JM109; colony pUC118-FIB2-JM109 (feces insert 2 selected against iseganan)): 0.5 µg/mL
MIC (E. coli JM109; colony pUC118-FPB1-JM109 (feces insert 1 selected against polymyxin B)): 0.5 µg/mL
MIC (E. coli JM109; colony pUC118-FPB2-JM109 (feces insert 2 selected against polymyxin B)): 0.5 µg/mL
MIC (E. coli JM109; colony pUC118-FSA1-JM109 (feces insert 1 selected against cathelicidin-DM)): 0.25 µg/mL
MIC (E. coli JM109; colony pUC118-FSA2-JM109 (feces insert 2 selected against cathelicidin-DM)): 0.5 µg/mL
MIC (E. coli JM109; colony pUC118-JM109 (control, no insert)): 0.25 µg/mL
MIC (E. coli JM109; colony pUC118-SCST1-JM109 (soil insert 1 selected against colistin)): 0.25 µg/mL
MIC (E. coli JM109; colony pUC118-SCST2-JM109 (soil insert 2 selected against colistin)): 0.25 µg/mL
MIC (E. coli JM109; colony pUC118-SGQ1-JM109 (soil insert 1 selected against melittin)): 0.25 µg/mL
MIC (E. coli JM109; colony pUC118-SGQ2-JM109 (soil insert 2 selected against melittin)): 0.25 µg/mL
MIC (E. coli JM109; colony pUC118-SIB1-JM109 (soil insert 1 selected against iseganan)): 0.25 µg/mL
MIC (E. coli JM109; colony pUC118-SIB2-JM109 (soil insert 2 selected against iseganan)): 0.25 µg/mL
MIC (E. coli JM109; colony pUC118-SPB1-JM109 (soil insert 1 selected against polymyxin B)): 0.5 µg/mL
MIC (E. coli JM109; colony pUC118-SPB2-JM109 (soil insert 2 selected against polymyxin B)): 0.5 µg/mL
MIC (E. coli JM109; colony pUC118-SSA1-JM109 (soil insert 1 selected against cathelicidin-DM)): 0.25 µg/mL
MIC (E. coli JM109; colony pUC118-SSA2-JM109 (soil insert 2 selected against cathelicidin-DM)): 0.25 µg/mL
MIC (E. coli DH5α; E. coli DH5α containing pUC118 plasmids): 0.5 µg/mL
MIC (E. coli DH5α; colony pUC118-DH5α (control, no insert)): 0.5 µg/mL
MIC (E. coli DH5α; colony pUC118-FCST1-DH5α (feces insert 1 selected against colistin)): 0.5 µg/mL
MIC (E. coli DH5α; colony pUC118-FCST2-DH5α (feces insert 2 selected against colistin)): 1 µg/mL
MIC (E. coli DH5α; colony pUC118-FGQ1-DH5α (feces insert 1 selected against melittin)): 1 µg/mL
MIC (E. coli DH5α; colony pUC118-FGQ2-DH5α (feces insert 2 selected against melittin)): 1 µg/mL
MIC (E. coli DH5α; colony pUC118-FIB1-DH5α (feces insert 1 selected against iseganan)): 0.5 µg/mL
MIC (E. coli DH5α; colony pUC118-FIB2-DH5α (feces insert 2 selected against iseganan)): 1 µg/mL
MIC (E. coli DH5α; colony pUC118-FPB1-DH5α (feces insert 1 selected against polymyxin B)): 1 µg/mL
MIC (E. coli DH5α; colony pUC118-FPB2-DH5α (feces insert 2 selected against polymyxin B)): 1 µg/mL
MIC (E. coli DH5α; colony pUC118-FSA1-DH5α (feces insert 1 selected against cathelicidin-DM)): 0.5 µg/mL
MIC (E. coli DH5α; colony pUC118-FSA2-DH5α (feces insert 2 selected against cathelicidin-DM)): 1 µg/mL
MIC (E. coli DH5α; colony pUC118-SCST1-DH5α (soil insert 1 selected against colistin)): 0.5 µg/mL
MIC (E. coli DH5α; colony pUC118-SCST2-DH5α (soil insert 2 selected against colistin)): 0.5 µg/mL
MIC (E. coli DH5α; colony pUC118-SGQ1-DH5α (soil insert 1 selected against melittin)): 0.5 µg/mL
MIC (E. coli DH5α; colony pUC118-SGQ2-DH5α (soil insert 2 selected against melittin)): 0.5 µg/mL
MIC (E. coli DH5α; colony pUC118-SIB1-DH5α (soil insert 1 selected against iseganan)): 0.5 µg/mL
MIC (E. coli DH5α; colony pUC118-SIB2-DH5α (soil insert 2 selected against iseganan)): 0.5 µg/mL
MIC (E. coli DH5α; colony pUC118-SPB1-DH5α (soil insert 1 selected against polymyxin B)): 1 µg/mL
MIC (E. coli DH5α; colony pUC118-SPB2-DH5α (soil insert 2 selected against polymyxin B)): 2 µg/mL
MIC (E. coli DH5α; colony pUC118-SSA1-DH5α (soil insert 1 selected against cathelicidin-DM)): 0.5 µg/mL
MIC (E. coli DH5α; colony pUC118-SSA2-DH5α (soil insert 2 selected against cathelicidin-DM)): 0.5 µg/mL
MIC (E. coli BL21(DE3); colony pUC118-BL21(DE3) (control, no insert)): 1 µg/mL
MIC (E. coli BL21(DE3); colony pUC118-FCST1-BL21(DE3) (feces insert 1 selected against colistin)): 1 µg/mL
MIC (E. coli BL21(DE3); colony pUC118-FCST2-BL21(DE3) (feces insert 2 selected against colistin)): 2 µg/mL
MIC (E. coli BL21(DE3); colony pUC118-FGQ1-BL21(DE3) (feces insert 1 selected against melittin)): 2 µg/mL
MIC (E. coli BL21(DE3); colony pUC118-FGQ2- BL21(DE3) (feces insert 2 selected against melittin)): 2 µg/mL
MIC (E. coli BL21(DE3); colony pUC118-FIB1-BL21(DE3) (feces insert 1 selected against iseganan)): 1 µg/mL
MIC (E. coli BL21(DE3); colony pUC118-FIB2-BL21(DE3) (feces insert 2 selected against iseganan)): 2 µg/mL
MIC (E. coli BL21(DE3); colony pUC118-FPB1-BL21(DE3) (feces insert 1 selected against polymyxin B)): 4 µg/mL
MIC (E. coli BL21(DE3); colony pUC118-FPB2-BL21(DE3) (feces insert 2 selected against polymyxin B)): 2 µg/mL
MIC (E. coli BL21(DE3); colony pUC118-FSA1-BL21(DE3) (feces insert 1 selected against cathelicidin-DM)): 1 µg/mL
MIC (E. coli BL21(DE3); colony pUC118-FSA2-BL21(DE3) (feces insert 2 selected against cathelicidin-DM)): 4 µg/mL
MIC (E. coli BL21(DE3); colony pUC118-SCST1-BL21(DE3) (soil insert 1 selected against colistin)): 1 µg/mL
MIC (E. coli BL21(DE3); colony pUC118-SCST2-BL21(DE3) (soil insert 2 selected against colistin)): 1 µg/mL
MIC (E. coli BL21(DE3); colony pUC118-SGQ1-BL21(DE3) (soil insert 1 selected against melittin)): 1 µg/mL
MIC (E. coli BL21(DE3); colony pUC118-SGQ2-BL21(DE3) (soil insert 2 selected against melittin)): 1 µg/mL
MIC (E. coli BL21(DE3); colony pUC118-SIB1-BL21(DE3) (soil insert 1 selected against iseganan)): 1 µg/mL
MIC (E. coli BL21(DE3); colony pUC118-SIB2-BL21(DE3) (soil insert 2 selected against iseganan)): 1 µg/mL
MIC (E. coli BL21(DE3); colony pUC118-SPB1-BL21(DE3) (soil insert 1 selected against polymyxin B)): 2 µg/mL
MIC (E. coli BL21(DE3); colony pUC118-SPB2-BL21(DE3) (soil insert 2 selected against polymyxin B)): 2 µg/mL
MIC (E. coli BL21(DE3); colony pUC118-SSA1-BL21(DE3) (soil insert 1 selected against cathelicidin-DM)): 1 µg/mL
MIC (E. coli BL21(DE3); colony pUC118-SSA2-BL21(DE3) (soil insert 2 selected against cathelicidin-DM)): 1 µg/mL
